Values of other authors in patent US12329862B2, “Transdermal therapeutic system containing asenapine” (LTS LOHMANN THERAPIE-SYSTEME AG, priority 2018, dated 2025).

bioavailability (if ingested): < 2%
terminal disposition half-life (sublingual administration, therapeutic doses): ≥ 24 h
SMILES: CN1C[C@H]2c3ccccc3Oc3ccc(Cl)cc3[C@@H]2C1 (relative stereo) [asenapine, (3aRS,12bRS)-rel-5-chloro-2,3,3a,12b-tetrahydro-2-methyl-1H-dibenz[2,3:6,7]oxepino[4,5-c]pyrrole]
Somnolence and anxiety, share of the patients (very common side effects): ≥ 10%
